{"source": "patent US20220064696A1", "about": "“TARGET ENGAGEMENT ASSAY FOR RAS PROTEINS” (Promega Corporation, priority 2020, published 2022)", "key": {"KRAS2B(G12V)": {"molecular_target": "T1, KRAS2B(G12V) (Homo sapiens, UniProt P01116, G12V)", "T1 construct": "expressed in transfected cells; host or cells: HEK293", "assay": "Target engagement at KRAS(G12V) homomultimeric complexes, NanoBiT oligomer configuration with SmBiT tag", "format": "binding", "settings": "live HEK293 cells, LgBiT-KRAS2B(G12V) and SmBiT-KRAS2B(G12V), tracer JRW-2192, FIG. 5", "description": "To explore this concept, the NanoBiT™ Technology was used to observe KRAS multimeric (e.g., dimer) complexes by NanoBiT tagging of KRAS, wherein BRET donor signal originates from an oligomeric KRAS. In a tissue culture flask, HEK293 cells per well were transfected with KRAS-NanoBiT fusions, LgBiT-KRAS2B(G12V) and SmBiT-KRAS2B(G12V) expressed from pNB3K or pNB4K plasmids along with pGEM-3Z carrier DNA (1:1:8 ratio by mass). Transfections were performed using 3:1 FuGENE HD:plasmid ratios. 24 hours post transfection, cells were treated with compound JRW-2192 and BI-2852.\n(§1) After incubation in live cells, NanoBRET-TE substrate solution was added to a final concentration of 1×, and BRET was measured on a Glomax Discover plate reader."}, "KRAS2B(G12C)": {"molecular_target": "T2, KRAS2B(G12C) (Homo sapiens, UniProt P01116, G12C)", "T2 construct": "expressed in transfected cells; host or cells: HEK293", "assay": "KRAS(G12C) homomultimeric complexes, NanoBiT oligomer configuration with HiBiT tag", "format": "binding", "settings": "LgBiT-KRAS2B(G12C) and HiBiT-KRAS2B(G12C)", "description": "To explore this concept, the NanoBiT™ Technology was used to form KRAS multimeric (e.g., dimer) complexes by NanoBiT tagging of KRAS, wherein BRET donor signal originates from an oligomeric KRAS. In a tissue culture flask, HEK293 cells per well were transfected with KRAS-NanoBiT fusions, LgBiT-KRAS2B(G12C) and HiBiT-KRAS2B(G12C) expressed from pNB3K or pFN38A plasmids along with pGEM-3Z carrier DNA (1:1:8 ratio by mass). Transfections were performed using 3:1 FuGENE HD:plasmid ratios. 24 hours post transfection, cells were treated with compound JRW-2220 and BI-2852.\nas §1\nThe assay was also performed in digitonin permeabilized cells. Even after permeabilization, donor signal levels remained significant due to the use of the HiBiT tag, facilitating measurement of target engagement."}}}
{"smiles": "Cn1cnc(Cn2ccc3ccc(CNCc4[nH]c5ccccc5c4[C@H]4NC(=O)c5ccc(O)cc54)cc32)c1", "note": "[BI-2852]", "values": [{"measurement": "inhibition of the BRET signal induced by the tracer (functional competition)", "setting": "KRAS2B(G12V)", "value": "dose-dependent inhibition of the BRET signal"}, {"measurement": "inhibition of the BRET signal induced by the tracer (functional competition)", "setting": "KRAS2B(G12C); digitonin permeabilized HEK293 cells, tracer JRW-2220, FIG. 9", "value": "dose-dependent inhibition of the BRET signal"}, {"measurement": "inhibition of the BRET signal induced by the tracer (functional competition)", "setting": "KRAS2B(G12C); live HEK293 cells, tracer JRW-2220, FIG. 8", "value": "dose-dependent inhibition of the BRET signal"}]}
